# From ChEMBL document CHEMBL4346683 (Eur J Med Chem, 2019)
# Activity calls are given as the source filed them. No cut-off for these calls is given here.
# Legend:
# [1] = tested on: Escherichia coli; test: Antibacterial activity against Escherichia coli ATCC 25922 assessed as inhibition of bacterial growth incubated for 24 hrs by TTC double broth dilution method; format: functional; details: ATCC 25922, 24 h
# [2] = tested on: Pseudomonas aeruginosa; test: Antibacterial activity against Pseudomonas aeruginosa ATCC 27853 assessed as inhibition of bacterial growth incubated for 24 hrs by TTC double broth dilution method; format: functional; details: ATCC 27853, 24 h
# [3] = Cytotoxicity against human 293T cells assessed as reduction in cell viability incubated for 24 hrs by MTT assay; format: cell-based; details: HEK-293T cells
# [4] = molecular target: T1, 3-oxoacyl-[acyl-carrier-protein] synthase 3 (Escherichia coli, UniProt C3TDZ2); test: Inhibition of Escherichia coli FabH in presence of radiolabelled substrates and acetyl-coA by enzyme coupled FabD/FabH assay system
# T1 sequence (C3TDZ2 whole entry): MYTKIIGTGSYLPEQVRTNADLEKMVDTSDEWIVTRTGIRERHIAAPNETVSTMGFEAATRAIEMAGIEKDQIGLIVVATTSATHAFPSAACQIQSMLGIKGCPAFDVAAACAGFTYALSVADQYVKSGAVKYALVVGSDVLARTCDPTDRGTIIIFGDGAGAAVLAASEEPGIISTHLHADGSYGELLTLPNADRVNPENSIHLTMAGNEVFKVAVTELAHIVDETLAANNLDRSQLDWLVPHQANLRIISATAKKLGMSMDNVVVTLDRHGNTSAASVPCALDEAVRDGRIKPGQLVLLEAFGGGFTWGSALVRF
# [5] = tested on: Staphylococcus aureus; test: Antibacterial activity against Staphylococcus aureus ATCC 25923 assessed as inhibition of bacterial growth incubated for 24 hrs by TTC double broth dilution method; format: functional; details: ATCC 25923, 24 h
# [6] = Induction of hemolysis in human erythrocytes assessed as hemoglobin release incubated for 3 hrs by spectrophotometric analysis; format: cell-based; details: erythrocyte
# [7] = tested on: Bacillus subtilis; test: Antibacterial activity against Bacillus subtilis ATCC 530 assessed as inhibition of bacterial growth incubated for 24 hrs by TTC double broth dilution method; format: functional; details: ATCC 530, 24 h
# [8] = tested on: Staphylococcus aureus; test: Antibacterial activity against Staphylococcus aureus; format: functional
# [9] = tested on: Streptococcus pneumoniae; test: Antibacterial activity against Streptococcus pneumoniae; format: functional
# [10] = tested on: Enterococcus faecium; test: Antibacterial activity against Enterococcus faecium; format: functional
# [11] = tested on: Xanthomonas oryzae pv. oryzae; test: Antibacterial activity against wild type Xanthomonas oryzae pv. oryzae KACC10331 expressing FabH assessed as reduction in bacterial growth; format: functional
# [12] = tested on: Xanthomonas oryzae pv. oryzae; test: Antibacterial activity against wild type Xanthomonas oryzae pv. oryzae KACC10331 expressing FabH assessed as reduction in bacterial growth at 5 ug/ml; format: functional, organism-based
# [13] = Inhibition of Enterococcus faecalis FabH
# [14] = Inhibition of Streptococcus pyogenes FabH
Structure (SMILES),MIC [1],MIC [2],CC50 at 24 h [3],IC50 [4],MIC [5],LC30 [6],MIC [7],MIC [8],MIC [9],MIC [10],MIC [11],inhibition [12],IC50 [13],IC50 [14]
Cc1ccc(C(=O)n2c(-c3cn(-c4ccccc4)nc3-c3ccc(C(F)(F)F)cc3)nc3ccccc32)cc1,62.5 µg/mL,> 62.5 µg/mL,169 µM,31.8 µM,> 62.5 µg/mL,> 10000 µg/mL,3.9 µg/mL,–,–,–,–,–,–,–
O=C(c1ccc(Cl)cc1)n1c(-c2cn(-c3ccccc3)nc2-c2ccc(F)cc2)nc2ccccc21,62.5 µg/mL,> 62.5 µg/mL,179 µM,36.1 µM,> 62.5 µg/mL,> 10000 µg/mL,62.5 µg/mL,–,–,–,–,–,–,–
O=C(c1ccccc1)n1c(-c2cn(-c3ccccc3)nc2-c2ccc(C(F)(F)F)cc2)nc2ccccc21,62.5 µg/mL,62.5 µg/mL,168 µM,25.7 µM,> 62.5 µg/mL,> 10000 µg/mL,15.6 µg/mL,–,–,–,–,–,–,–
Cc1ccc(-c2nn(-c3ccccc3)cc2-c2nc3ccccc3n2C(=O)c2cccc(C)c2)cc1,62.5 µg/mL,62.5 µg/mL,195 µM,33.2 µM,> 62.5 µg/mL,> 10000 µg/mL,31.2 µg/mL,–,–,–,–,–,–,–
C[C@]12C[C@@]34C=CC(=O)[C@@](C)(CCC(=O)Nc5c(O)ccc(C(=O)O)c5O)[C@@H]3[C@H](C[C@@H]1C4)O2,–,–,–,–,–,–,–,0.5 to 1 µg/mL,0.5 to 1 µg/mL,0.5 to 1 µg/mL,–,–,–,–
Cc1ccc(-c2nn(-c3ccccc3)cc2-c2nc3ccccc3n2C(=O)c2cccnc2)cc1,62.5 µg/mL,62.5 µg/mL,189 µM,18.3 µM,31.2 µg/mL,> 10000 µg/mL,0.98 µg/mL,–,–,–,–,–,–,–
Cc1ccc(-c2nn(-c3ccccc3)cc2-c2nc3ccccc3n2C(=O)c2ccc(C)nc2)cc1,62.5 µg/mL,62.5 µg/mL,145 µM,16.9 µM,62.5 µg/mL,> 10000 µg/mL,0.98 µg/mL,–,–,–,15.6 µg/mL,–,–,–
O=C(c1ccccc1)n1c(-c2cn(-c3ccccc3)nc2-c2ccc(F)cc2)nc2ccccc21,62.5 µg/mL,62.5 µg/mL,180 µM,22.1 µM,> 62.5 µg/mL,> 10000 µg/mL,7.8 µg/mL,–,–,–,–,–,–,–
O=C(c1cccnc1)n1c(-c2cn(-c3ccccc3)nc2-c2ccc(F)cc2)nc2ccccc21,0.98 µg/mL,0.49 µg/mL,216 µM,1.22 µM,0.98 µg/mL,> 10000 µg/mL,0.98 µg/mL,–,–,–,0.49 µg/mL,Active,–,–
Cc1ccc(C(=O)n2c(-c3cn(-c4ccccc4)nc3-c3ccc(C(F)(F)F)cc3)nc3ccccc32)cn1,1.95 µg/mL,62.5 µg/mL,153 µM,2.05 µM,62.5 µg/mL,> 10000 µg/mL,0.49 µg/mL,–,–,–,–,–,–,–
Cc1cccc(C(=O)n2c(-c3cn(-c4ccccc4)nc3-c3ccc(F)cc3)nc3ccccc32)c1,62.5 µg/mL,31.2 µg/mL,148 µM,34.1 µM,62.5 µg/mL,> 10000 µg/mL,31.2 µg/mL,–,–,–,–,–,–,–
O=C(c1ccncc1)n1c(-c2cn(-c3ccccc3)nc2-c2ccc(F)cc2)nc2ccccc21,> 62.5 µg/mL,62.5 µg/mL,151 µM,33.9 µM,62.5 µg/mL,> 10000 µg/mL,31.2 µg/mL,–,–,–,–,–,–,–
O=C(c1ccc(Cl)cc1)n1c(-c2cn(-c3ccccc3)nc2-c2ccc(C(F)(F)F)cc2)nc2ccccc21,62.5 µg/mL,31.2 µg/mL,181 µM,39.8 µM,> 62.5 µg/mL,> 10000 µg/mL,62.5 µg/mL,–,–,–,–,–,–,–
Cc1ccc(-c2nn(-c3ccccc3)cc2-c2nc3ccccc3n2C(=O)c2ccc(Cl)cc2)cc1,62.5 µg/mL,> 62.5 µg/mL,216 µM,38.2 µM,> 62.5 µg/mL,> 10000 µg/mL,62.5 µg/mL,–,–,–,–,–,–,–
NC[C@H]1O[C@H](O[C@H]2[C@H](O)[C@@H](O[C@H]3O[C@H](CO)[C@@H](O)[C@H](N)[C@H]3O)[C@H](N)C[C@@H]2N)[C@H](N)[C@@H](O)[C@@H]1O [BEKANAMYCIN],1.95 µg/mL,3.9 µg/mL,–,–,0.98 µg/mL,–,0.98 µg/mL,–,–,–,–,–,–,–
Cc1ccc(C(=O)n2c(-c3cn(-c4ccccc4)nc3-c3ccc(C)cc3)nc3ccccc32)cc1,3.9 µg/mL,31.2 µg/mL,176 µM,3.06 µM,> 62.5 µg/mL,> 10000 µg/mL,0.98 µg/mL,–,–,–,–,–,–,–
Cc1ccccc1C(=O)n1c(-c2cn(-c3ccccc3)nc2-c2ccc(F)cc2)nc2ccccc21,> 62.5 µg/mL,> 62.5 µg/mL,189 µM,37.2 µM,> 62.5 µg/mL,> 10000 µg/mL,62.5 µg/mL,–,–,–,–,–,–,–
Cc1cccc(C(=O)n2c(-c3cn(-c4ccccc4)nc3-c3ccc(C(F)(F)F)cc3)nc3ccccc32)c1,62.5 µg/mL,31.2 µg/mL,154 µM,34.9 µM,> 62.5 µg/mL,> 10000 µg/mL,31.2 µg/mL,–,–,–,–,–,–,–
Cc1ccc(C(=O)n2c(-c3cn(-c4ccccc4)nc3-c3ccc(F)cc3)nc3ccccc32)cc1,62.5 µg/mL,> 62.5 µg/mL,178 µM,30.3 µM,> 62.5 µg/mL,> 10000 µg/mL,0.98 µg/mL,–,–,–,–,–,–,–
O=C(Nc1cccc(O)c1C(=O)O)c1ccc(-c2ccccc2)c(Oc2ccccc2)c1,–,–,–,–,–,–,–,–,–,–,–,–,0.004 µM,0.004 µM
O=C(c1cccnc1)n1c(-c2cn(-c3ccccc3)nc2-c2ccc(C(F)(F)F)cc2)nc2ccccc21,62.5 µg/mL,62.5 µg/mL,158 µM,15.2 µM,62.5 µg/mL,> 10000 µg/mL,1.95 µg/mL,–,–,–,15.6 µg/mL,–,–,–
Cc1cncc(C(=O)n2c(-c3cn(-c4ccccc4)nc3-c3ccc(F)cc3)nc3ccccc32)c1,62.5 µg/mL,62.5 µg/mL,119 µM,22.1 µM,62.5 µg/mL,> 10000 µg/mL,15.6 µg/mL,–,–,–,–,–,–,–
O=C(c1ccncc1)n1c(-c2cn(-c3ccccc3)nc2-c2ccc(C(F)(F)F)cc2)nc2ccccc21,> 62.5 µg/mL,62.5 µg/mL,135 µM,32.7 µM,62.5 µg/mL,> 10000 µg/mL,7.8 µg/mL,–,–,–,–,–,–,–
Cc1ccccc1C(=O)n1c(-c2cn(-c3ccccc3)nc2-c2ccc(C(F)(F)F)cc2)nc2ccccc21,> 62.5 µg/mL,> 62.5 µg/mL,179 µM,36.5 µM,> 62.5 µg/mL,> 10000 µg/mL,62.5 µg/mL,–,–,–,–,–,–,–
Cc1ccc(-c2nn(-c3ccccc3)cc2-c2nc3ccccc3n2C(=O)c2cncc(C)c2)cc1,62.5 µg/mL,62.5 µg/mL,155 µM,9.56 µM,62.5 µg/mL,> 10000 µg/mL,7.8 µg/mL,–,–,–,–,–,–,–
Cc1ccc(-c2nn(-c3ccccc3)cc2-c2nc3ccccc3n2C(=O)c2ccccc2)cc1,> 62.5 µg/mL,62.5 µg/mL,204 µM,28.2 µM,> 62.5 µg/mL,> 10000 µg/mL,31.2 µg/mL,–,–,–,–,–,–,–
Cc1ccc(-c2nn(-c3ccccc3)cc2-c2nc3ccccc3n2C(=O)c2ccncc2)cc1,> 62.5 µg/mL,62.5 µg/mL,154 µM,30.3 µM,62.5 µg/mL,> 10000 µg/mL,31.2 µg/mL,–,–,–,–,–,–,–
Cc1cncc(C(=O)n2c(-c3cn(-c4ccccc4)nc3-c3ccc(C(F)(F)F)cc3)nc3ccccc32)c1,62.5 µg/mL,62.5 µg/mL,123 µM,22.9 µM,62.5 µg/mL,> 10000 µg/mL,0.98 µg/mL,–,–,–,7.82 µg/mL,Active,–,–
Cc1ccc(-c2nn(-c3ccccc3)cc2-c2nc3ccccc3n2C(=O)c2ccccc2C)cc1,62.5 µg/mL,> 62.5 µg/mL,176 µM,35.4 µM,> 62.5 µg/mL,> 10000 µg/mL,62.5 µg/mL,–,–,–,–,–,–,–
Cc1ccc(C(=O)n2c(-c3cn(-c4ccccc4)nc3-c3ccc(F)cc3)nc3ccccc32)cn1,1.95 µg/mL,62.5 µg/mL,137 µM,4.02 µM,62.5 µg/mL,> 10000 µg/mL,0.98 µg/mL,–,–,–,15.6 µg/mL,–,–,–
